According to patent US5241087A (priority 1992, dated 1993):

System: not listed separately
Assay: Permeability through supported-gas membrane (microporous polypropylene hollow fibers, system of FIG. 1)
Details: supported-gas membrane system of FIG. 1
For `O=Cc1ccccc1` [benzaldehyde], the “average permeability relative to the permeability of benzaldehyde cyanohydrin” value was “roughly 700 times”.

System: oxynitrilase enzyme from sorghum
Assay: not given
Details: 6 Phytochemistry 473 (1967); cited from earlier work
In the case of `N#CC(O)c1ccc(O)cc1` (stereo not drawn) [p-hydroxybenzaldehyde cyanohydrin], the “specificity of sorghum oxynitrilase for dehydrocyanation of substrate” value is given as “appears to be specific”.

System: (R)-oxynitrilase
Assay: Relative rate of dehydrocyanation of cyanohydrins by soluble (R)-oxynitrilase (initial rate studies, absorbance)
Type: biochemical
Details: (R)-oxynitrilase with 0.21 mM solution of cyanohydrin; relative to benzaldehyde cyanohydrin = 1.0
Procedure: The following standardized assay was utilized to measure the activity of oxynitrilase set forth in the Examples which follow. A solution of enzyme was prepared in 0.1M (pH 5.5) citrate buffer. A 3-ml sample of enzyme solution was combined with 30 microliters of 0.21M benzaldehyde cyanohydrin and the rate of increase in absorbance at 250 nm recorded. Then, the same procedure was followed with a 3-ml sample of 0.1M (pH 5.5) citrate buffer to obtain the background, non-enzymatic, reaction. The activity in units/ml was calculated by subtracting the slope of the non-enzymatic reaction from the slope of the enzymatic reaction and converting the absorbance change with time to concentration change with time using a molar extinction coefficient of 13,200 M^-1 cm^-1.
Relative rates of dehydrocyanation of different cyanohydrins subjected to the action of the soluble catalyst (R)-oxynitrilase were determined from initial rate studies. A solution of (R)-oxynitrilase was combined with a 0.21 mM solution of cyanohydrin and the rate of increase of absorbance at the wavelength corresponding to the absorption maxima was monitored as described above in connection with the measurement of catalyst activity. The measured activity was calculated using the appropriate extinction coefficient for the corresponding aldehyde.
In the case of `Cc1ccc(C(O)C#N)o1` (stereo not drawn) [5-Methylfurfural cyanohydrin], the “Relative Rate (dehydrocyanation)” value is reported as 2.8.
With `N#CC(O)c1ccccc1` (stereo not drawn) [Benzaldehyde cyanohydrin] the “Relative Rate (dehydrocyanation)” value was 1.0.
For `N#CC(O)C=Cc1ccccc1` (stereo not drawn) [Cinnamaldehyde cyanohydrin], the “Relative Rate (dehydrocyanation)” value was 0.05.
In the case of `CC=CC(O)C#N` (stereo not drawn) [Crotonaldehyde cyanohydrin], the “Relative Rate (dehydrocyanation)” value is reported as 0.90.
With `N#CC(O)c1ccco1` (stereo not drawn) [Furfural cyanohydrin] the “Relative Rate (dehydrocyanation)” value was 2.5.
For `N#CC(O)c1ccc2c(c1)OCO2` (stereo not drawn) [Piperonal cyanohydrin], the “Relative Rate (dehydrocyanation)” value was 2.1.
In the case of `COc1cccc(C(O)C#N)c1` (stereo not drawn) [m-Anisaldehyde cyanohydrin], the “Relative Rate (dehydrocyanation)” value is reported as 0.19.
For `COc1ccc(C(O)C#N)cc1` (stereo not drawn) [p-Anisaldehyde cyanohydrin], the “Relative Rate (dehydrocyanation)” value was 0.17.
With `CCc1ccc(C(O)C#N)cc1` (stereo not drawn) [p-Ethylbenzaldehyde cyanohydrin] the “Relative Rate (dehydrocyanation)” value was 0.13.
With `Cc1ccc(C(O)C#N)cc1` (stereo not drawn) [p-Tolualdehyde cyanohydrin] the “Relative Rate (dehydrocyanation)” value was 0.45.
